Columns and labels:
Type in all cases: in vivo
Avena fatua = assay: Test Example 5: herbicidal effect by foliage application, plastic box (symbol I); settings: 320 g/ha, 3 weeks after application
Procedure, shortened: (§1)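 Emulsion formulation, diluted with water to the intended rate, was applied uniformly to leaves by small sprayer. Recipients were 14-day greenhouse-grown seedlings (25° C. to 30° C.). Assessment followed at 3 weeks.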

rapeseed = assay: Test Example 5: effect on crop by foliage application, plastic box (symbol g); settings: 320 g/ha, 3 weeks after application
Procedure, shortened: (§2)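 Seeds were sown in spots in sterilized diluvial soil held in a plastic box 21 cm × 13 cm × 7 cm deep, covered with about 1.5 cm of soil, and grown in a greenhouse at 25° C. to 30° C.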

[1] = test system: Echinochloa crus-galli var. crus-galli; assay: Test Example 3: herbicidal effect by foliage application, Wagner pot (symbol H); settings: application herbicide amount 320 g/ha
Procedure, shortened: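 Weeds and rice were sown in alluvial soil under 0.1–0.5 cm of standing water and grown for 14 days in a 25–30 °C greenhouse. An emulsion of the compound, diluted in water to a set dose, was sprayed evenly onto the foliage. Effect was scored against fixed criteria 3 weeks after treatment.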

Scirpus juncoides = assay: Test Example 2: herbicidal activity, application during weed generation in submerged conditions (symbol B); settings: Table 23; application herbicide amount 320 g/ha; grade 0-5 by criteria of Test Example 1
Procedure, shortened: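 Alluvial soil in pots was flooded to a 4 cm water depth and sown with a mix of the three weed species, then grown in a greenhouse at 25° C. to 30° C. At the one- to two-leaf stage, an emulsifiable formulation diluted in water to a set dose was applied to the water surface. Effects were scored visually 3 weeks later.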

beet = assay: Test Example 4: effect on crop by soil treatment (symbol f); settings: application herbicide amount 320 g/ha
Procedure, shortened: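 Sterilized diluvial soil, spot sowing, ~1.5 cm soil cover; greenhouse 25–30° C.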

Veronica persica = assay: Test Example 5: herbicidal effect by foliage application, plastic box (symbol R); settings: 320 g/ha, 3 weeks after application
Procedure, shortened: as §1

soybean = assay: Test Example 5: effect on crop by foliage application, plastic box (symbol d); settings: 320 g/ha, 3 weeks after application
Procedure, shortened: as §2

Monochoria vaginalis = assay: Test Example 1: herbicidal activity, application before weed generation in submerged conditions (symbol C); settings: application herbicide amount 320 g/ha
Procedure, shortened: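 Mixed weed seeds sown in alluvial soil under 4 cm of water, with rice seedlings at the 2.5-leaf stage added. Same-day treatment: emulsion diluted to a set herbicide amount onto the water. Three weeks at 25–30 °C, then graded on a six-step scale.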

[2] = test system: directly sowed rice plant; assay: Test Example 3: effect on crop by foliage application, Wagner pot (symbol b); settings: application herbicide amount 320 g/ha
Procedure, shortened: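 Steps: fill a 1/10000-are Wagner pot with alluvial soil; add water and mix to submerge at 0.1–0.5 cm depth; sow rice plus Echinochloa crus-galli var. crus-galli, Leptochloa chinensis and Cyperus difformis; grow in a 25–30 °C greenhouse.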

SMILES: CCOC(=O)C(C(=O)Cc1ccccc1)C1CC(O)=C(c2c(C)cc(C)cc2C)C1=O (stereo not drawn) [2-011]
- I: Avena fatua, herbicidal effect grade (Avena fatua): 0 (Herbicidal ratio of 5% or lower (almost no effect))
- g: rapeseed, effect on crop grade (rapeseed): 0 (Herbicidal ratio of 5% or lower (almost no effect))
- herbicidal effect on H (Echinochloa crus-galli var. crus-galli), grade 0-5 [1]: 0 (Herbicidal ratio of 5% or lower (almost no effect))
- Herbicidal effect grade, B: Scirpus juncoides (Scirpus juncoides): 0 (Herbicidal ratio of 5% or lower (almost no effect))
- f: beet, effect on crop grade (beet): 0 (Herbicidal ratio of 5% or lower (almost no effect))
- R: Veronica persica, herbicidal effect grade (Veronica persica): 0 (Herbicidal ratio of 5% or lower (almost no effect))
- d: soybean, effect on crop grade (soybean): 0 (Herbicidal ratio of 5% or lower (almost no effect))
- Herbicidal effect grade, C: Monochoria vaginalis (Monochoria vaginalis): 0 (Herbicidal ratio of 5% or lower (almost no effect))
- effect on crop b (directly sowed rice plant), grade 0-5 [2]: 0 (Herbicidal ratio of 5% or lower (almost no effect))

SMILES: CON=C(C)CC1CC(OCCSC)=C(c2c(C)cc(C)cc2C)C1=O (stereo not drawn) [1-011]
- I: Avena fatua, herbicidal effect grade (Avena fatua): 0 (Herbicidal ratio of 5% or lower (almost no effect))
- g: rapeseed, effect on crop grade (rapeseed): 4 (Herbicidal ratio of 70% or higher and lower than 90%)
- herbicidal effect on H (Echinochloa crus-galli var. crus-galli), grade 0-5 [1]: 0 (Herbicidal ratio of 5% or lower (almost no effect))
- Herbicidal effect grade, B: Scirpus juncoides (Scirpus juncoides): 0 (Herbicidal ratio of 5% or lower (almost no effect))
- f (beet) effect on crop grade (beet): 0 (Herbicidal ratio of 5% or lower (almost no effect))
- R: Veronica persica, herbicidal effect grade (Veronica persica): 0 (Herbicidal ratio of 5% or lower (almost no effect))
- d: soybean, effect on crop grade (soybean): 0 (Herbicidal ratio of 5% or lower (almost no effect))
- Herbicidal effect grade, C: Monochoria vaginalis (Monochoria vaginalis): 0 (Herbicidal ratio of 5% or lower (almost no effect))
- effect on crop b (directly sowed rice plant), grade 0-5 [2]: 0 (Herbicidal ratio of 5% or lower (almost no effect))

SMILES: Cc1cc(C)c(C2=C(O)CC(CC(=O)C(C)(C)C)C2=O)c(C)c1 (stereo not drawn) [2-022]
- I: Avena fatua, herbicidal effect grade (Avena fatua): 0 (Herbicidal ratio of 5% or lower (almost no effect))
- g: rapeseed, effect on crop grade (rapeseed): 1 (Herbicidal ratio of 5% or higher and lower than 20%)
- herbicidal effect on H (Echinochloa crus-galli var. crus-galli), grade 0-5 [1]: 1 (Herbicidal ratio of 5% or higher and lower than 20%)
- Herbicidal effect grade, B: Scirpus juncoides (Scirpus juncoides): 0 (Herbicidal ratio of 5% or lower (almost no effect))
- f: beet, effect on crop grade (beet): 0 (Herbicidal ratio of 5% or lower (almost no effect))
- R: Veronica persica, herbicidal effect grade (Veronica persica): 0 (Herbicidal ratio of 5% or lower (almost no effect))
- d: soybean, effect on crop grade (soybean): 0 (Herbicidal ratio of 5% or lower (almost no effect))
- Herbicidal effect grade, C: Monochoria vaginalis (Monochoria vaginalis): 0 (Herbicidal ratio of 5% or lower (almost no effect))
- effect on crop b (directly sowed rice plant), grade 0-5 [2]: 5 (Herbicidal ratio of 90% or more (almost completely withered))

SMILES: Cc1cc(C)c(C2=C(O)CC(CC(=O)Cc3ccccc3)C2=O)c(C)c1 (stereo not drawn) [2-015]
- I: Avena fatua, herbicidal effect grade (Avena fatua): 4 (Herbicidal ratio of 70% or higher and lower than 90%)
- g: rapeseed, effect on crop grade (rapeseed): 4 (Herbicidal ratio of 70% or higher and lower than 90%)
- herbicidal effect on H (Echinochloa crus-galli var. crus-galli), grade 0-5 [1]: 1 (Herbicidal ratio of 5% or higher and lower than 20%)
- Herbicidal effect grade, B: Scirpus juncoides (Scirpus juncoides): 0 (Herbicidal ratio of 5% or lower (almost no effect))
- f: beet, effect on crop grade (beet): 0 (Herbicidal ratio of 5% or lower (almost no effect))
- R: Veronica persica, herbicidal effect grade (Veronica persica): 0 (Herbicidal ratio of 5% or lower (almost no effect))
- d: soybean, effect on crop grade (soybean): 1 (Herbicidal ratio of 5% or higher and lower than 20%)
- Herbicidal effect grade, C: Monochoria vaginalis (Monochoria vaginalis): 0 (Herbicidal ratio of 5% or lower (almost no effect))
- effect on crop b (directly sowed rice plant), grade 0-5 [2]: 4 (Herbicidal ratio of 70% or higher and lower than 90%)

SMILES: CON=C(C)CC1CC(O)=C(c2c(C)cc(-c3ccc(Cl)cc3)cc2C)C1=O (mixture of isomers) [6-029]
- I: Avena fatua, herbicidal effect grade (Avena fatua): 5 (Herbicidal ratio of 90% or more (almost completely withered))
- g: rapeseed, effect on crop grade (rapeseed): 4 (Herbicidal ratio of 70% or higher and lower than 90%)
- herbicidal effect on H (Echinochloa crus-galli var. crus-galli), grade 0-5 [1]: 5 (Herbicidal ratio of 90% or more (almost completely withered))
- Herbicidal effect grade, B: Scirpus juncoides (Scirpus juncoides): 3 (Herbicidal ratio of 40% or higher and lower than 70%)
- f: beet, effect on crop grade (beet): 0 (Herbicidal ratio of 5% or lower (almost no effect))
- R: Veronica persica, herbicidal effect grade (Veronica persica): 4 (Herbicidal ratio of 70% or higher and lower than 90%)
- d: soybean, effect on crop grade (soybean): 0 (Herbicidal ratio of 5% or lower (almost no effect))
- Herbicidal effect grade, C: Monochoria vaginalis (Monochoria vaginalis): 3 (Herbicidal ratio of 40% or higher and lower than 70%)
- effect on crop b (directly sowed rice plant), grade 0-5 [2]: 5 (Herbicidal ratio of 90% or more (almost completely withered))

SMILES: CCCC(=O)C(C(=O)OC)C1CC(O)=C(c2c(C)cc(C)cc2C)C1=O (stereo not drawn) [2-020]
- I: Avena fatua, herbicidal effect grade (Avena fatua): 0 (Herbicidal ratio of 5% or lower (almost no effect))
- g: rapeseed, effect on crop grade (rapeseed): 0 (Herbicidal ratio of 5% or lower (almost no effect))
- herbicidal effect on H (Echinochloa crus-galli var. crus-galli), grade 0-5 [1]: 2 (Herbicidal ratio of 20% or higher and lower than 40%)
- Herbicidal effect grade, B: Scirpus juncoides (Scirpus juncoides): 0 (Herbicidal ratio of 5% or lower (almost no effect))
- f: beet, effect on crop grade (beet): 0 (Herbicidal ratio of 5% or lower (almost no effect))
- R: Veronica persica, herbicidal effect grade (Veronica persica): 0 (Herbicidal ratio of 5% or lower (almost no effect))
- d: soybean, effect on crop grade (soybean): 0 (Herbicidal ratio of 5% or lower (almost no effect))
- Herbicidal effect grade, C: Monochoria vaginalis (Monochoria vaginalis): 0 (Herbicidal ratio of 5% or lower (almost no effect))
- effect on crop b (directly sowed rice plant), grade 0-5 [2]: 2 (Herbicidal ratio of 20% or higher and lower than 40%)

SMILES: CON=C(C)C1CC(O)=C(c2c(C)cc(C)cc2C)C1=O (mixture of isomers) [3-002]
- I: Avena fatua, herbicidal effect grade (Avena fatua): 0 (Herbicidal ratio of 5% or lower (almost no effect))
- g: rapeseed, effect on crop grade (rapeseed): 0 (Herbicidal ratio of 5% or lower (almost no effect))
- herbicidal effect on H (Echinochloa crus-galli var. crus-galli), grade 0-5 [1]: 0 (Herbicidal ratio of 5% or lower (almost no effect))
- Herbicidal effect grade, B: Scirpus juncoides (Scirpus juncoides): 0 (Herbicidal ratio of 5% or lower (almost no effect))
- f: beet, effect on crop grade (beet): 0 (Herbicidal ratio of 5% or lower (almost no effect))
- R: Veronica persica, herbicidal effect grade (Veronica persica): 0 (Herbicidal ratio of 5% or lower (almost no effect))
- d: soybean, effect on crop grade (soybean): 0 (Herbicidal ratio of 5% or lower (almost no effect))
- Herbicidal effect grade, C: Monochoria vaginalis (Monochoria vaginalis): 0 (Herbicidal ratio of 5% or lower (almost no effect))
- effect on crop b (directly sowed rice plant), grade 0-5 [2]: 0 (Herbicidal ratio of 5% or lower (almost no effect))
